In ChEMBL document CHEMBL5030532, “Synthesis and Evaluation of Galloyl Conjugates of Flavanones as BMP-2 Upregulators with Promising Bone Anabolic and Fracture Healing Properties” (J Med Chem, 2021):
Active and inactive are the calls of the source. No cut-off for these calls is given here.

How the values were obtained:
Calvarial osteoblast [1] = assay: Induction of osteogeneis in rat calvarial osteoblast cells assessed as fold upregulation of Col1 gene expression at 1 pM measured after 48 hrs by qPCR analysis relative to control; type: functional
Calvarial osteoblast [2] = assay: Induction of mineralization in rat Calvarial osteoblast cells measured at 10 nM measured for 14 days by Cetylpyridinium chloride method; type: functional, tissue-based; details: time 14.0 day
Calvarial osteoblast [3] = assay: Cytotoxicity against rat Calvarial osteoblast cells assessed as viable cells measured at 0.000001 to 1 uM measure after 48 hrs by cell viability assay; type: cell-based; details: dose lower 1e-06 µM, dose upper 1 µM
Calvarial osteoblast [4] = assay: Induction of rat Calvarial osteoblast cell proliferation at 0.000001 to 1 uM measured after 48 hrs by MTT assay; type: functional, tissue-based; details: dose lower 1e-06 µM, dose upper 1.0 µM
[5] = Induction of osteogeneis in rat calvarial osteoblast cells assessed as fold upregulation of RUNX2 gene expression at 1 pM measured after 48 hrs by qPCR analysis relative to control; type: functional
[6] = Induction of osteogeneis in rat calvarial osteoblast cells assessed as fold upregulation of ALP gene expression at 1 pM measured after 48 hrs by qPCR analysis relative to control; type: functional
Calvarial osteoblast [7] = assay: Induction of osteoblast differentiation in rat Calvaria osteoblast cells measured assessed as maximal increase in alkaline phosphatase activity incubated for 48 hrs using PNPP as substrate; type: functional
[8] = Induction of osteogeneis in rat calvarial osteoblast cells assessed as fold upregulation of BMP-2 gene expression at 1 pM measured after 48 hrs by qPCR analysis relative to control; type: functional
Calvarial osteoblast [9] = assay: Induction of osteoblast differentiation in rat Calvaria osteoblast cells measured assessed as increase in alkaline phosphatase activity at 10 pM incubated for 48 hrs using PNPP as substrate; type: functional, cell-based
Calvarial osteoblast [10] = assay: Induction of osteoblast differentiation in rat Calvaria osteoblast cells measured assessed as increase in alkaline phosphatase activity at 1 pM incubated for 48 hrs using PNPP as substrate; type: functional, cell-based
Calvarial osteoblast [11] = assay: Induction of osteoblast differentiation in rat Calvaria osteoblast cells measured assessed as increase in alkaline phosphatase activity at 0.000001 to 1 uM incubated for 48 hrs using PNPP as substrate; type: functional, cell-based; details: dose lower 1e-06 µM, dose upper 1.0 µM

## COc1cc(C(=O)Nc2ccc3c(c2)C(=O)CC(c2ccc(C(C)(C)C)cc2)O3)cc(OC)c1OC (stereo not given)
Calvarial osteoblast [1]
  Activity: inactive
Calvarial osteoblast [2]
  Activity: Active
Calvarial osteoblast [3]
  Activity: Non-Toxic
Calvarial osteoblast [4]
  Activity: Toxic
[5]
  fold change (FC): 1.9
[6]
  fold change (FC): 2.8
Calvarial osteoblast [7]
  ECmax: 10 pM
[8]
  fold change (FC): 1.7

## O=C(O)c1cc(O)c(O)c(O)c1
Calvarial osteoblast [9]
  Activity: Active
Calvarial osteoblast [10]
  Activity: Active

## COc1cccc([C@@H]2CC(=O)c3cc(NC(=O)c4cc(OC)c(OC)c(OC)c4)ccc3O2)c1
Calvarial osteoblast [11]
  Activity: Active

## COc1cccc(C2CC(=O)c3cc([N+](=O)[O-])ccc3O2)c1 (stereo not given)
Calvarial osteoblast [9]
  Activity: Active
Calvarial osteoblast [10]
  Activity: Active

## COc1cc(C(=O)O)cc(OC)c1OC
Calvarial osteoblast [9]
  Activity: Active
Calvarial osteoblast [10]
  Activity: Active
